# Reference: ChEMBL document CHEMBL1125997 (Bioorg Med Chem Lett, 1991)
# Species on record: Cavia porcellus
# Assay: Inhibition of histamine-inducedcontraction of the isolated guinea-pig ileum
# Format: functional
# Conditions: read-out: pA2 (converted)
row,Structure (SMILES),Kb [nM]
1,CC(C)(C)c1ccc([C@@H](O)CCCN2CCC(C(O)(c3ccccc3)c3ccccc3)CC2)cc1,19.1
2,CC(C)(C)c1ccc([C@H](O)CCCN2CCC(C(O)(c3ccccc3)c3ccccc3)CC2)cc1 [R-TERFENADINE],24.5
3,CC(C)(C)c1ccc(C(O)CCCN2CCC(C(O)(c3ccccc3)c3ccccc3)CC2)cc1 (stereo not drawn) [TERFENADINE],22.4
